Test results published in patent EP4707280A1, “1,4-CINEOLE DERIVATIVE AND INTERMEDIATE THEREOF, HERBICIDE CONTAINING SAID DERIVATIVE AS ACTIVE INGREDIENT, METHOD FOR USING HERBICIDE, AND METHOD FOR PREPARING AGROCHEMICAL COMPOSITION” (HOKKO CHEMICAL INDUSTRY CO., LTD., priority 2023, dated 2024).

Tests used:
Type in all cases: in vivo
[1] = tested on: Echinochloa crus-galli var. formosensis; experiment: Test Example 2: herbicidal effect test by application during growth period of paddy rice; conditions: 120 g per 10 ares, applied seven days after sowing, flooded pots, 14 days after application; for inhibition at 1200 g/ha: Echinochloa crus-galli, read-out: weed inhibition rate
Procedure: (§1) The present test was conducted in duplicate for each chemical concentration group, and the weed inhibition rate (%) was determined 14 days after chemical application using the following formula (Math. 1). [formula]
(§2) Wagner pots with an area of […] were filled with paddy soil, followed by addition of water and incorporation of chemical fertilizer (N:P:K = 16:16:16), after which puddling was performed. After that, seeds of Echinochloa crus-galli var. formosensis, broad-leaved weeds (Monochoria vaginalis), and Scirpus juncoides were sown at a depth of 0 cm to 1 cm, 30 seeds each. Immediately after sowing, the pots were flooded and a water depth of approximately 3 cm was maintained. Subsequent management was conducted in a glass greenhouse. Seven days after sowing, an emulsifiable concentrate prepared according to Formulation Example 5 using the compound shown below was diluted with water, and a specified amount of the diluted solution was applied by dropper. The amount of the active ingredient to be applied was equivalent to 120 g per 10 ares. The test was conducted in duplicate for each chemical concentration group, and the herbicidal effect was evaluated 14 days after chemical application using the same criteria as in Test Example 1.

Digitaria ciliaris [2] = experiment: Test Example 3: herbicidal effect test by soil application in upland field; conditions: 120 g per 10 ares, sprayed one day after sowing, 14 days after application; for inhibition at 1200 g/ha: Digitaria ciliaris, read-out: weed inhibition rate
Procedure: as §1
(§3) Pots with an area of 36 cm^2 were filled with upland soil (alluvial loam), twenty seeds each of weeds of Digitaria ciliaris, Echinochloa crus-galli, Chenopodium album, and Amaranthus viridis were uniformly mixed with the top 1 cm layer of soil and the surface was lightly pressed down. One day after sowing, an emulsifiable concentrate prepared according to Formulation Example 5 using the compound shown below was diluted with water, and the diluted solution was sprayed onto the soil surface at a rate of 100 liters per 10 ares. The amount of the active ingredient to be applied was equivalent to 120 g per 10 ares. Fourteen days after chemical application, the herbicidal effect was evaluated according to the same criteria as in Test Example 1.

Echinochloa crus-galli [3] = experiment: as above; conditions: 120 g per 10 ares, sprayed one day after sowing, 14 days after application; for inhibition at 1200 g/ha: Echinochloa crus-galli, read-out: weed inhibition rate
Procedure: as §1, §3

[4] = tested on: Echinochloa crus-galli var. formosensis; experiment: Test Example 1: herbicidal effect test by soil application in paddy rice; conditions: 120 g active ingredient per 10 ares, applied immediately after sowing, flooded pots, 14 days after application; for pest or weed control at 1200 g/ha: Echinochloa crus-galli, soil, 336 h, read-out: weed inhibition rate
Procedure: as §2, with “([…] Monochoria” for “(Monochoria”, “Immediately thereafter,” for “Seven days after sowing,”, “ares.” for “ares. The test was conducted in duplicate for each chemical concentration group, and the herbicidal effect was evaluated 14 days after chemical application using the same criteria as in Test Example 1.”

Digitaria ciliaris [5] = experiment: Test Example 4: herbicidal effect test by stem and leaf treatment in upland field; conditions: 120 g per 10 ares, sprayed seven days after sowing, upland soil, 14 days after application; for inhibition at 1200 g/ha: Digitaria ciliaris, read-out: weed inhibition rate
Procedure: as §1
as §3, with “crus-galli,” for “crus-galli, Chenopodium album,”, “Seven days” for “One day”

Echinochloa crus-galli [6] = experiment: as above; conditions: 120 g per 10 ares, sprayed seven days after sowing, upland soil, 14 days after application; for inhibition at 1200 g/ha: Echinochloa crus-galli, read-out: weed inhibition rate

CC(C)[C@@]12C[C@H](OCc3ccccc3Cl)[C@@](C)(CC1Br)O2 (mixture of isomers) [1-1031, (1R,2S,4S,SR)-5-bromo-2-[(2-chlorophenyl)methoxy]-1-methyl-4-isopropyl-7-oxabicyclo[2.2.1]heptane]
≥ 80%: inhibition at 1200 g/ha [1] | inhibition at 1200 g/ha (Digitaria ciliaris [2]) | inhibition at 1200 g/ha (Echinochloa crus-galli [3]) | pest or weed control at 1200 g/ha [4] | inhibition at 1200 g/ha (Digitaria ciliaris [5]) | inhibition at 1200 g/ha (Echinochloa crus-galli [6])

CC(C)[C@@]12C[C@H](OCc3ccccc3I)[C@@](C)(C[C@H]1Br)O2 [1-1037, (1R,2S,4S,5R)-5-bromo-2-[(2-iodophenyl)methoxy]-1-methyl-4-isopropyl-7-oxabicyclo[2.2.1]heptane]
≥ 80%: inhibition at 1200 g/ha [1] | inhibition at 1200 g/ha (Digitaria ciliaris [2]) | inhibition at 1200 g/ha (Echinochloa crus-galli [3]) | pest or weed control at 1200 g/ha [4] | inhibition at 1200 g/ha (Digitaria ciliaris [5]) | inhibition at 1200 g/ha (Echinochloa crus-galli [6])

CC(C)[C@]12C[C@@H](OCc3cccc(C(F)(F)F)c3)[C@](C)(C[C@@H]1Br)O2 [1-701, (1S,2R,4R,5S)-5-bromo-l-methyl-4-isopropyl-2-[[3-(trifluoromethyl)phenyl]methoxy]-7-oxabicyclo[2.2.1]heptane]
≥ 80%: weed inhibition rate [1] | weed inhibition rate (Digitaria ciliaris [2]) | weed inhibition rate (Echinochloa crus-galli [3]) | weed inhibition rate [4] | weed inhibition rate (Digitaria ciliaris [5]) | weed inhibition rate (Echinochloa crus-galli [6])

CC(C)[C@@]12C[C@H](OCc3c(F)cccc3Br)[C@@](C)(C[C@H]1I)O2 [1-1601, (1R,2S,4S,5R)-2-[(2-bromo-6-fluorophenyl)methoxy]-5-iodo-1-methyl-4-isopropyl-7-oxabicyclo[2.2.1]heptane]
≥ 80%: inhibition at 1200 g/ha [1] | inhibition at 1200 g/ha (Digitaria ciliaris [2]) | inhibition at 1200 g/ha (Echinochloa crus-galli [3]) | pest or weed control at 1200 g/ha [4] | inhibition at 1200 g/ha (Digitaria ciliaris [5]) | inhibition at 1200 g/ha (Echinochloa crus-galli [6])

CC(C)C12CC(OCc3cccc(F)c3)C(C)(CC1Br)O2 (stereo not drawn) [1-1356, 5-bromo-2-[(3-fluorophenyl)methoxy]-1-methyl-4-isopropyl-7-oxabicyclo[2.2.1]heptane]
≥ 80%: inhibition at 1200 g/ha [1] | inhibition at 1200 g/ha (Digitaria ciliaris [2]) | inhibition at 1200 g/ha (Echinochloa crus-galli [3]) | pest or weed control at 1200 g/ha [4] | inhibition at 1200 g/ha (Digitaria ciliaris [5]) | inhibition at 1200 g/ha (Echinochloa crus-galli [6])

CC(C)C12CC(OCc3cccc4ccccc34)C(C)(CC1Br)O2 (stereo not drawn) [1-1383, 5-bromo-1-methyl-2-(naphthalen-1-ylmethoxy)-4-isopropyl-7-oxabicyclo[2.2.1]heptane]
≥ 80%: inhibition at 1200 g/ha [1] | inhibition at 1200 g/ha (Digitaria ciliaris [2]) | inhibition at 1200 g/ha (Echinochloa crus-galli [3]) | pest or weed control at 1200 g/ha [4] | inhibition at 1200 g/ha (Digitaria ciliaris [5]) | inhibition at 1200 g/ha (Echinochloa crus-galli [6])

CC(C)[C@@]12C[C@H](OCc3c(F)cccc3Cl)[C@@](C)(C[C@H]1I)O2 [1-1121, (1R,2S,4S,5R)-2-[(2-chloro-6-fluorophenyl)methoxy]-5-iodo-1-methyl-4-isopropyl-7-oxabicyclo[2.2.1]heptane]
≥ 80%: inhibition at 1200 g/ha [1] | inhibition at 1200 g/ha (Digitaria ciliaris [2]) | inhibition at 1200 g/ha (Echinochloa crus-galli [3]) | pest or weed control at 1200 g/ha [4] | inhibition at 1200 g/ha (Digitaria ciliaris [5]) | inhibition at 1200 g/ha (Echinochloa crus-galli [6])

CC(C)[C@@]12C[C@H](OCc3ccccc3F)[C@@](C)(C[C@H]1I)O2 [1-1094, (1R,2S,4S,5R)-2-[(2-fluorophenyl)methoxy]-5-iodo-1-methyl-4-isopropyl-7-oxabicyclo[2.2.1]heptane]
≥ 80%: inhibition at 1200 g/ha [1] | inhibition at 1200 g/ha (Digitaria ciliaris [2]) | inhibition at 1200 g/ha (Echinochloa crus-galli [3]) | pest or weed control at 1200 g/ha [4] | inhibition at 1200 g/ha (Digitaria ciliaris [5]) | inhibition at 1200 g/ha (Echinochloa crus-galli [6])

CC(C)[C@]12C[C@@H](OCc3ccccc3F)[C@](C)(C[C@H]1C)O2 (racemic) [1-1597, (1SR,2RS,4RS,5RS)-2-[(2-fluorophenyl)methoxy]-1,5-dimethyl-4-isopropyl-7-oxabicyclo[2.2.1]heptane]
≥ 80%: inhibition at 1200 g/ha [1] | inhibition at 1200 g/ha (Digitaria ciliaris [2]) | inhibition at 1200 g/ha (Echinochloa crus-galli [3]) | pest or weed control at 1200 g/ha [4] | inhibition at 1200 g/ha (Digitaria ciliaris [5]) | inhibition at 1200 g/ha (Echinochloa crus-galli [6])

COc1cccc(COC2CC3(C(C)C)OC2(C)CC3Br)c1 (stereo not drawn) [1-1350, 5-bromo-2-[(3-methoxyphenyl)methoxy]-1-methyl-4-isopropyl-7-oxabicyclo[2.2.1]heptane]
≥ 80%: inhibition at 1200 g/ha [1] | inhibition at 1200 g/ha (Digitaria ciliaris [2]) | inhibition at 1200 g/ha (Echinochloa crus-galli [3]) | pest or weed control at 1200 g/ha [4] | inhibition at 1200 g/ha (Digitaria ciliaris [5]) | inhibition at 1200 g/ha (Echinochloa crus-galli [6])

CC(C)[C@]12C[C@@H](OCc3cccc(Br)c3)[C@](C)(C[C@@H]1Br)O2 [1-695, (1S,2R,4R,5S)-5-bromo-2-[(3-bromophenyl)methoxy]-1-methyl-4-isopropyl-7-oxabicyclo[2.2.1]heptane]
≥ 80%: inhibition at 1200 g/ha [1] | inhibition at 1200 g/ha (Digitaria ciliaris [2]) | inhibition at 1200 g/ha (Echinochloa crus-galli [3]) | pest or weed control at 1200 g/ha [4] | inhibition at 1200 g/ha (Digitaria ciliaris [5]) | inhibition at 1200 g/ha (Echinochloa crus-galli [6])

Cc1cccc(C)c1CO[C@H]1C[C@@]2(C(C)C)O[C@]1(C)C[C@H]2I [1-1118, (1R,2S,4S,5R)-2-[(2,6-dimethylphenyl)methoxy]-5-iodo-1-methyl-4-isopropyl-7-oxabicyclo[2.2.1]heptane]
≥ 80%: inhibition at 1200 g/ha [1] | inhibition at 1200 g/ha (Digitaria ciliaris [2]) | inhibition at 1200 g/ha (Echinochloa crus-galli [3]) | pest or weed control at 1200 g/ha [4] | inhibition at 1200 g/ha (Digitaria ciliaris [5]) | inhibition at 1200 g/ha (Echinochloa crus-galli [6])

CC(C)[C@@]12C[C@H](OCc3c(F)cccc3Br)[C@@](C)(C[C@H]1Br)O2 [1-1609, (1R,2S,4S,5R)-5-bromo-2-[(2-bromo-6-fluorophenyl)methoxy]-1-methyl-4-isopropyl-7-oxabicyclo[2.2.1]heptane]
≥ 80%: inhibition at 1200 g/ha [1] | inhibition at 1200 g/ha (Digitaria ciliaris [2]) | inhibition at 1200 g/ha (Echinochloa crus-galli [3]) | pest or weed control at 1200 g/ha [4] | inhibition at 1200 g/ha (Digitaria ciliaris [5]) | inhibition at 1200 g/ha (Echinochloa crus-galli [6])

CC(C)[C@]12C[C@@H](OCc3ccc(Br)cc3)[C@](C)(C[C@@H]1Br)O2 [1-696, (1S,2R,4R,5S)-5-bromo-2-[(4-bromophenyl)methoxy]-1-methyl-4-isopropyl-7-oxabicyclo[2.2.1]heptane]
≥ 80%: inhibition at 1200 g/ha [1] | inhibition at 1200 g/ha (Digitaria ciliaris [2]) | inhibition at 1200 g/ha (Echinochloa crus-galli [3]) | pest or weed control at 1200 g/ha [4] | inhibition at 1200 g/ha (Digitaria ciliaris [5]) | inhibition at 1200 g/ha (Echinochloa crus-galli [6])
